Holding throughout (type): cell-based
For one test, the system named is U266. As to the kind of experiment: Ubiscan ubiquitinated peptide quantification in U266. An excerpt: The effects of lenalidomide and pomalidomide on protein ubiquination were investigated using CST Ubiscan technology. Treated samples were sent to Cell Signaling Technology for ubiquinated peptide enrichment and quantification by LC/MS/MS. […] In the MG132 combo, more ubiquinated peptides are observed (compared with their controls). […] These peptides correspond to 176 unique proteins. Top few groups are: nucleosome, chromatin, protein-DNA complex assembly, Histone H2A. Among the 176 proteins, we found five proteins that belong to “ubiquitin-protein ligase activity” category, they are MDM2, HERC2, UBE2D3 (only by pomalidomide), UBE2N (lenalidomide only), UBE2M (both). Results for hits categorized by conditions are shown in FIGS. 8 & 9 (without MG132) and FIGS. 10 & 11 (with MG132).

Test [1] relates to CARD11-BCL-10-MALT1 (CBM) complex. As to the kind of experiment: MALT1-induced BCL-10 cleavage (CBM complex activity) in ABC-DLBCL cells. The procedure: Cells were treated with test compounds or 0.1% DMSO for indicated times. Following incubation, cells were collected, pelleted with centrifugation, and immediately lysed in 0.1 ml lysis buffer containing 10 mM Tris-HCl pH 8.0, 10 mM EDTA, 150 mM NaCl, 1% NP-40, 0.5% SDS, 1 mM DTT, 1 mM Na3VO4, plus Complete protease inhibitor cocktail (Roche Applied Science, Indianapolis, Ind.), then processed with a Qiashredder™ (Qiagen, Valencia, Calif.) for 1 minute and frozen on dry ice. Samples were diluted with 6×SDS sample buffer and then boiled for 5 min. Approximately 30 μl of this mixture was loaded per lane on a Criterion Precast 4-12% Tris-HCl gel (Bio-Rad, Hercules, Calif.), electrophoresed, and transferred to nitrocellulose membranes (Bio-Rad, Hercules, Calif.). The membranes were blocked for 1 hour at room temperature using blocking buffer (LI-COR Biosciences, Lincoln, Nebr.), then incubated overnight at 4° C. with antibodies against either BCL-10, IRF4, CRBN or β-actin. Membranes were washed and incubated with IRDye Secondary Antibodies (1:30,000) for 1 hour at room temperature. A standard protocol was then followed for signal detection, using the Odyssey® Infrared Imaging System and software (LI-COR Biosciences, Lincoln, Nebr.).
This mutation has been reported to cause constitutive formation and activation of CARD11-BCL-10-MALT1 (CBM) complex of BCR signaling pathway, leading to NF-κB overactivation in lymphoma cells. See Lenz, G., et al., Science 2008, 319: 1676-9; Thome, M. et al., Cold Spring Harb Perspect Biol. 2010; 2: a003004. To investigate the potential involvement of CBM complex in lenalidomide-induced IRF4 inhibition in these cells, the effect of lenalidomide on the complex activity was examined by measuring MALT1 paracaspase enzymatic activity. MALT1 is activated upon association with BCL-10 and CARD11 to form active CBM complex and then cleaves its binding partners, such as BCL-10.

A further test relates to NF-κB. As to the kind of experiment: NF-κB subunit DNA binding ELISA on nuclear extracts. The procedure:
Logarithmically growing DLBCL cells were treated with test agents as indicated. Nuclear extracts were prepared using a Nuclear Extract Kit (Active Motif, Carlsbad, Calif.) and protein concentration was determined by the bicinchoninic acid assay (Thermo Scientific, Rockford, Ill.). Detection of NF-κB activity was performed using a sensitive oligo-based colorimetric enzyme-linked immunosorbent assay (ELISA) method, according to the instructions of the manufacturer (Active Motif). Briefly, nuclear extracts of DLBCL cells were hybridized to 96-well plates coated with wild-type DNA oligonucleotides containing a single copy of the NF-κB consensus binding sequence. Bound NF-κB protein was then detected with antibodies specific for p50, p65 (Rel A) or […] subunits. A secondary antibody conjugated to horseradish peroxidase was added and plates were then read by spectrophotometry at 450 nm with a reference wavelength of 655 nm. NF-κB activity was calculated based on OD450/655 nm.
The effect of lenalidomide on NF-κB activity in various DLBCL cells was examined by measuring the level of NF-κB subunit proteins binding to consensus sequences and the NF-κB-driven luciferase activity. […] In contrast, lenalidomide had no effect on NF-κB DNA binding in GCB-DLBCL lines nor in normal peripheral blood mononuclear cells.
(In an ELISA, binding on a coated surface is turned into a signal by an enzyme label.)

Another test has as its system OCI-Ly10. As to the kind of experiment: Apoptosis of DLBCL cells. An excerpt: In order to define the place of lenalidomide for DLBCL therapy in specific patient populations and to understand the molecular mechanisms of efficacy, a panel of DLBCL cell lines was collected in this study. The DLBCL subtypes of the cell lines were confirmed based on literature information (Lenz G, et al., Proc Natl Acad Sci USA 2008; 105: 13520-5) and molecular analysis, including intracellular NF-κB activity or IRF4 expression, as well as gene expression profiling of key signature genes of activated B cells.

In another test the test system is poly-ubiquitin chains. As to the kind of experiment: Global polyubiquitination by immunofluorescence in H929 cells. To be noted: 1 μM, 30 minutes. Here is the method:
Specific antibodies for poly-ubiquitin chains were used to study the effect of immunomodulatory drugs on global levels of ubiquitination. H929 cells were treated with lenalidomide (1 μM), pomalidomide (1 μM) or proteasome inhibitor MG132. After 30 minutes cells were process for immunofluorescence. Global levels of K63-linked polyubiquitination were quantified by Cellomics.

In another test the test system is p21^WAF-1. As to the kind of experiment: p21WAF-1 mRNA and protein levels in U266B1 cells. The following applies: U266B1, control mock and negative control siRNA-transfected cells; pomalidomide 1 μM, lenalidomide 10 μM. The procedure:
To further investigate the effects of CRBN on the cell cycle arrest induced by drugs we used RT-PCR and Western blot analysis to measure the levels of key cell cycle and apoptotic regulators. U266B1 cells were transfected with mock, negative control siRNA, CRBN-siRNA-7 and CRBN-siRNA-11 for 24, 48, 72 and 96 h (FIG. 3A). Cells were treated 24 h after transfection with DMSO (0.1%), pomalidomide (1 μM) and lenalidomide (10 μM) for 1, 2, 3 days and the effect on mRNA and protein levels of the cyclin-dependent kinase (CDK) inhibitor p21^WAF-1 were evaluated. It has been shown that lenalidomide- and pomalidomide-induced cell cycle arrest is dependent on up-regulation of p21^WAF-1 in […]. […] However, knockdown of CRBN prevents the induction of p21^WAF-1 indicating the successful abrogation of G1 arrest and renewal of S phase progression (FIGS. 3C & 3D).

On to `Nc1cccc2c1CN(C1CCC(=O)NC1=O)C2=O` (centres unmarked) [lenalidomide, 3-(4-amino-1-oxo-1,3-dihydro-isoindol-2-yl)-piperidine-2,6-dione], for which, in the test with U266, the “Ub-proteins increased in abundance” value is “IKZF3, RPL19, PCM1 and NEDD8”; the “proteins decreased in abundance” value is “GNB2L1 and HNRNPR”. Besides, the BCL-10 cleavage entry in test [1] (OCI-Ly3 cells) is “neither the PKCβ inhibitor nor lenalidomide had any effect”. Moreover, the “MALT1-induced BCL-10 cleavage” value in test [1] (sensitive ABC-DLBCL cell lines OCI-Ly10 and U2932) is on record as “inhibited MALT1-induced BCL-10 cleavage in a concentration-dependent manner”. In addition, the “NF-κB DNA binding” value in the test on NF-κB (GCB-DLBCL lines and normal peripheral blood mononuclear cells) is “no effect”. The NF-κB inhibition result with NF-κB (lenalidomide-insensitive ABC-DLBCL OCI-Ly3 line with CARD11 mutation) is given as “not by lenalidomide”. In the test with NF-κB (several ABC-DLBCL cell lines, concentration-dependent), the “DNA binding by Rel A/p65, p50 and c-rel/p70 NF-κB subunits” value was “partially inhibited”. Moreover, in the test on OCI-Ly10, the “apoptosis of sensitive cell lines” value is “induced apoptosis”. For the same compound, in the test with poly-ubiquitin chains, the K-63-linked ubiquitination result is “but not K-63-linked ubiquitination” and the “total K48-linked polyubiquitination” value was “decrease”. In addition, the p21 level result with p21^WAF-1 is on record as “up-regulated”.

Values taken from US10047151B2, “Methods for the treatment of cancer and inflammatory diseases using cereblon as a predictor” (Celgene Corporation, priority 2011, dated 2018).
